What follows are compounds tested against T1, TGase2 (Homo sapiens, UniProt P21980) (assay: In-situ TGase activity by confocal microscopy in VEGF-treated HRECs). Conditions: 10 ng/ml VEGF 2 hrs, 50 μM cystamine, 20 μM MDC, 5 μM BAPTA-AM, 1 mM NAC, 0.5 μM Trolox, p<0.001.
T1 sequence (P21980 1-687): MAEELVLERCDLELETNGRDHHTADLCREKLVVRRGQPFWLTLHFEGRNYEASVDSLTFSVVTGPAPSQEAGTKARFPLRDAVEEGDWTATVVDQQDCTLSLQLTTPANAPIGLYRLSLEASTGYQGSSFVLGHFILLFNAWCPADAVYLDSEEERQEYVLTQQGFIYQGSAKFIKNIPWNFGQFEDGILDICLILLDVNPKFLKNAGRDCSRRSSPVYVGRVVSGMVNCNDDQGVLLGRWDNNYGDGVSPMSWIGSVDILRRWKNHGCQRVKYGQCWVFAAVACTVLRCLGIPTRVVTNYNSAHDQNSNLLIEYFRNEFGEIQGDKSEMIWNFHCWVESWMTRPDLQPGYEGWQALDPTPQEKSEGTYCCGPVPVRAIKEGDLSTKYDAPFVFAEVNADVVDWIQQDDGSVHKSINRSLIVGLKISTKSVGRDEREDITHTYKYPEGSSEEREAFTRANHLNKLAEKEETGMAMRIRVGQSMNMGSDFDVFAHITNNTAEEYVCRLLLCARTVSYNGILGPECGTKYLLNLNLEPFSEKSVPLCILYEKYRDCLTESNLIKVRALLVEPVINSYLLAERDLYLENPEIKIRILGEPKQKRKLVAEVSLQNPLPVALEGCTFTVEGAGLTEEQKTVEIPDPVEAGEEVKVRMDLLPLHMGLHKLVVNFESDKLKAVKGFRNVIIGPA
Type: cell-based
Parameters: endogenous in cells; host or cells: human retinal endothelial cells (HRECs)
Procedure: HUVEC isolation was done by our own supply and Human retinal endothelial cells (HRECs) were purchased from the Applied Cell Biology Research Institute (Cell Systems, Kirkland, Wash.). Both respectively were grown on 2% gelatin-coated plates in a M199 medium supplemented with 20% fetal bovine serum (FBS), 3 ng/ml basic fibroblastic growth factor, 5 units/ml heparin, 100 units/ml penicillin, and 100 μg/ml streptomycin. For experiments, cells were incubated for 6 hrs in a low-serum medium supplemented with 1% FBS and antibiotics.
In-situ Tgase transamidating activity was determined via confocal microscopic assay according to a previously known procedure. In brief, cells were incubated with 1 mM 5-(biotinamido)pentylamine (BAPA) for 1 hr at 37° C., fixed with 3.7% formaldehyde in PBS for 30 min, and permeabilized with 0.2% Triton X-100 in PBS for 30 min. After incubation with a blocking solution of 2% BSA in 20 mM Tris (pH 7.6), 138 mM NaCl, and 0.1% Tween 20 for 30 min, cells were treated with Cy3-conjugated streptavidin (1:200, v/v) in the blocking solution for 1 hr. Single-cell fluorescence intensities of stained cells were determined using confocal microscopy for 10 randomly selected cells per test. TGase activities were determined by comparing average fluorescence intensities of treated cells with those of control cells (expressed as multiples thereof).
HRECs were transfected with human TGase2-specific siRNA as described previously. In brief, cells were transfected with various concentrations of human TGase2-siRNA or 100 nM control siRNA (Dharmacon, Lafayette, Colo.) using siLentFect lipid reagent (Bio-Rad Laboratories, Hercules, Calif.) according to the manufacturer's instructions. Six hours after transfection with the indicated concentrations, the medium was replaced with a fresh culture medium and the transfected cells were further incubated for 24 hrs.
A detailed description of FIGS. 1A-1F are given below. […] (A, B) HRECs were incubated with 10 ng/ml VEGF for the indicated times (A) or for 2 hrs (B) in the presence of TGase inhibitors (50 μM cystamine and 20 μM MDC), 5 μM Ca^2+ chelator BAPTA-AM, or ROS scavengers (1 mM NAC or 0.5 μM Trolox). In-situ TGase activity was determined by confocal microscopy as described in Research Design and Methods (A: Time course changes in VEGF-induced transglutaminase activation; and B: Effects of various inhibitors on VEGF-induced transglutaminase activation). (C,D) HRECs were transfected with the indicated concentrations (C) or 100 nM (D) of human TGase2-specific siRNA (TGase2 siRNA) or 100 nM control (Ctrl) siRNA. Endothelial cells were treated with 10 ng/ml VEGF and subjected to confocal microscopic determination of in-situ TGase activity (C: Dose-dependent inhibition of TGase2 expression by TGase2 siRNA, TGase2 expression being analyzed by Western blot; and D: TGase2 siRNA prevention of VEGF-induced transglutaminase activation). FIGS. 1E and 1F show the effects of various inhibitors on the elevation of intracellular Ca^2+ (E) and ROS (F). Intracellular Ca^2+ and ROS levels were determined by confocal microscopy as described in Research Design and Methods. Results are expressed as mean±SD from three independent trials (***p<0.001).

SMILES	VEGF-induced TGase activation (in-situ TGase activity)
Cc1c(C)c2c(c(C)c1O)CCC(C)(C(=O)O)O2 (stereo not drawn) [Trolox]	inhibited
CN(C)c1cccc2c(S(=O)(=O)NCCCCCN)cccc12 [MDC, monodansylcadaverine]	prevented
NCCSSCCN [cystamine]	prevented
